According to ChEMBL document CHEMBL1133338, “Novel 3-(4-piperidinylthio)-1H-indoles as potent nonopioid orally active central analgesics” (Bioorg Med Chem Lett, 2000):
pKi: −log10 of the molar value.

Experiments:
Mus musculus [1] = assay: In vivo analgesic activity in hot plate test in mice; format: functional
Mus musculus [2] = assay: In vivo analgesic activity in phenylbenzoquinone-induced writhing test in mice; format: functional
Mus musculus [3] = assay: Compound (at 30 mg/kg) was evaluated in vivo for the inhibition of phenylbenzoquinone induced painful reactions in mice; format: functional
Mus musculus [4] = assay: Compound (at 30 mg/kg) was evaluated in vivo for the inhibition of painful reactions in mice in the hot plate test; format: functional
Mus musculus [5] = species: Mus musculus; assay: Effective dose in mice by tail pinch test
Rattus norvegicus [6] = species: Rattus norvegicus; assay: Compound was tested for inhibition of Freund's adjuvant-induced polyarthritis in rats; format: functional
Rattus norvegicus [7] = species: Rattus norvegicus; assay: Compound was tested for inhibition of kaolin induced arthritis in rats
Rattus norvegicus [8] = assay: Compound after peroral administration was tested for inhibition of kaolin-induced arthritis in rats; format: functional; conditions: po
Rattus norvegicus [9] = assay: Compound (at 60 mg/kg perorally) was tested for inhibition of Freund's adjuvant-induced polyarthritis in rats; format: functional; conditions: route oral
[10] = biological target: Sodium-dependent serotonin transporter (Rattus norvegicus, UniProt P31652); assay: Binding affinity on Serotonin transporter was determined in rat
Chain of Sodium-dependent serotonin transporter (P31652 whole entry): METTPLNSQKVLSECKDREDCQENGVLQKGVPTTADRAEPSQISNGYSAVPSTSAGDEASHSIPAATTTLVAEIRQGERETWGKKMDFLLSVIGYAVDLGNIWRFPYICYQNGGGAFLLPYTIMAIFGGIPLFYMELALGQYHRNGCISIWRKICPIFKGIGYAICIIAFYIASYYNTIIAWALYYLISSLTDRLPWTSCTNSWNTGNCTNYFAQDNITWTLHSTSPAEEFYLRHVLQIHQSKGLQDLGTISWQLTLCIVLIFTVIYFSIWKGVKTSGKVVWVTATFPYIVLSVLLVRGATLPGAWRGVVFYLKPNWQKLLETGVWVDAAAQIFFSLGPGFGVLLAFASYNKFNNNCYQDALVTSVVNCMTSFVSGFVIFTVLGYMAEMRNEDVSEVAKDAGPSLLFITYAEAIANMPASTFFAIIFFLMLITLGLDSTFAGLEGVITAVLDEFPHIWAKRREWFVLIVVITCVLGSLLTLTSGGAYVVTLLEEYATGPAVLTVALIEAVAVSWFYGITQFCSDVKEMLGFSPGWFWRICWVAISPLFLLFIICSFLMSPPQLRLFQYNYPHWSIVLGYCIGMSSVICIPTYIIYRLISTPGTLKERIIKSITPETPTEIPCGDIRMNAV

Mus musculus [11] = assay: Effective dose in mice after intraperitoneal administration by tail pinch test; format: functional; conditions: ip

| SMILES | ED50 (Mus musculus [1]) [mg/kg] | ED50 (Mus musculus [2]) [mg/kg] | inhibition in vivo at 30 mg/kg (Mus musculus [3]) [%] | also measured |
| --- | --- | --- | --- | --- |
| Cc1[nH]c2ccc(F)cc2c1SC1CCNCC1 | 12.7 | 5.9 |  |  |
| CN1CCC(Sc2c[nH]c3ccc(I)cc23)CC1 |  | 54.2 |  |  |
| CN1CCC([S+]([O-])c2c[nH]c3ccc(Cl)cc23)CC1 (stereo not given) |  |  | 44 |  |
| CN1CCC(S(=O)(=O)c2c[nH]c3ccc(Cl)cc23)CC1 | 16 | 5.4 |  |  |
| COc1ccc2[nH]cc(SC3CCN(C)CC3)c2c1 |  | 24.9 |  |  |
| Cc1[nH]c2ccc(Br)cc2c1SC1CCNCC1 | 3.1 | 0.7 |  |  |
| CCCC(=O)N1CCC(Sc2c[nH]c3ccc(Cl)cc23)CC1 | 22.7 | 8.9 |  |  |
| Clc1ccc2[nH]cc(SC3CCN(CCc4ccccc4)CC3)c2c1 |  | 8.9 |  | inhibition in vivo at 30 mg/kg (Mus musculus [4]): 14% |
| CN1CCC(Sc2c[nH]c3ccccc23)CC1 |  |  | 26 |  |
| CN1CCC(Sc2c[nH]c3ccc(O)cc23)CC1 |  |  | 9 |  |
| Cc1[nH]c2ccc(C(F)(F)F)cc2c1SC1CCNCC1 |  | 19.4 |  | inhibition in vivo at 30 mg/kg (Mus musculus [4]): 41% |
| CON1CCC(Sc2c[nH]c3ccc(Cl)cc23)CC1 | 2.3 | 1.4 |  |  |
| Clc1ccc(-c2[nH]c3ccc(Cl)cc3c2SC2CCNCC2)cc1 |  |  | 26 |  |
| Clc1ccc2[nH]cc(SC3CCN(Cc4ccccc4)CC3)c2c1 |  | 9.7 |  | inhibition in vivo at 30 mg/kg (Mus musculus [4]): 32% |
| CC(=O)N1CCC(Sc2c[nH]c3ccc(Cl)cc23)CC1 | 3.8 | 2.9 |  |  |
| CC(C)N1CCC(Sc2c[nH]c3ccc(Cl)cc23)CC1 |  |  | 38 |  |
| CON1CCC(Sc2cn(C)c3ccc(C(=O)O)cc23)CC1 |  |  | 25 |  |

| SMILES | ED50 (Mus musculus [1]) [mg/kg] | ED50 (Mus musculus [2]) [mg/kg] | inhibition in vivo at 30 mg/kg (Mus musculus [3]) [%] | also measured |
| --- | --- | --- | --- | --- |
| CN1CC[C@]23c4c5ccc(O)c4O[C@H]2[C@@H](O)C=C[C@H]3[C@H]1C5 [MORPHINE] | 28.9 |  |  | ED50 (Mus musculus [5]): 15 mg/kg; Dose (Rattus norvegicus [6]): 5.2 mg/kg; ED50 (Rattus norvegicus [7]): 4.4 mg/kg |
| CC(=O)N1CCC(Sc2c[nH]c3ccc(Br)cc23)CC1 | 2.8 | 2.9 |  |  |
| CN1CCC(Sc2cn(C)c3ccc(Cl)cc23)CC1 | 9.3 | 3.9 |  |  |
| CON1CCC(Sc2c[nH]c3ccc(Br)cc23)CC1 | 3.2 | 1.6 |  |  |
| CN1CCC(Sc2c[nH]c3ccc(Cl)cc23)CC1 | 16.9 | 4 |  | ED50 (Rattus norvegicus [8]): 4.9 mg/kg; inhibition in vivo at 60 mg/kg (Rattus norvegicus [9]): 62%; pKi [10]: 8.52; ED50 (Mus musculus [11]): 25.3 mg/kg |
| CN1CCC(Sc2cn(C)c3ccc(Br)cc23)CC1 | 8.6 | 5.4 |  |  |
| Clc1ccc2[nH]cc(SC3CCNCC3)c2c1 | 1.2 | 0.3 |  |  |
| CC(C)c1ccc2[nH]cc(SC3CCN(C)CC3)c2c1 |  |  | 48 |  |
| CCCCn1cc(SC2CCN(C)CC2)c2cc(Br)ccc21 |  |  | 21 |  |
| Cc1[nH]c2ccc(F)cc2c1SC1CCN(C)CC1 |  | 35.6 |  |  |
| O=CN1CCC(Sc2c[nH]c3ccc(Br)cc23)CC1 |  |  | 31 |  |
| O=S(=O)(c1c[nH]c2ccc(Cl)cc12)C1CCNCC1 | 8.4 | 12.5 |  |  |
| Cc1c(SC2CCNCC2)c2cc(Cl)ccc2n1Cc1ccc(Cl)cc1 |  |  | 27 |  |
| CCOC(=O)N1CCC(Sc2c[nH]c3ccc(Br)cc23)CC1 | 27.3 | 6.3 |  |  |
| Cc1[nH]c2ccc(Cl)cc2c1SC1CCNCC1 | 9.9 | 0.8 |  |  |
| CCN1CCC(Sc2c[nH]c3ccc(Cl)cc23)CC1 | 33.3 |  | 42 |  |
| Cc1ccc2[nH]cc(SC3CCN(C)CC3)c2c1 |  |  | 25 |  |
